According to ChEMBL document CHEMBL1201862, “PubChem BioAssay data set” (2004):
The source made the active and inactive calls.

What was measured:
[1] = molecular target: Lysine-specific demethylase 4A (Homo sapiens, UniProt O75164); experiment: JMJD2A histone demethylase inhibitors, dose response, selectivity assay for GASC-1 inhibitor project, biochemical, DELFIA europium, cherry-picked samples (AID 488840)
[2] = molecular target: Lysine-specific demethylase 4C (Homo sapiens, UniProt Q9H3R0); experiment: GASC-1 (JMJD2C) histone demethylase inhibitors, dose response, biochemical, DELFIA europium, cherry-picked samples (AID 488835); format: functional
[3] = molecular target: T1, Mannose-6-phosphate isomerase (Homo sapiens, UniProt P34949); experiment: human PMI inhibitors, high substrate, primary screen, biochemical, fluorescence intensity, high mannose 6-phosphate (AID 1220)
T1 sequence (P34949 whole entry): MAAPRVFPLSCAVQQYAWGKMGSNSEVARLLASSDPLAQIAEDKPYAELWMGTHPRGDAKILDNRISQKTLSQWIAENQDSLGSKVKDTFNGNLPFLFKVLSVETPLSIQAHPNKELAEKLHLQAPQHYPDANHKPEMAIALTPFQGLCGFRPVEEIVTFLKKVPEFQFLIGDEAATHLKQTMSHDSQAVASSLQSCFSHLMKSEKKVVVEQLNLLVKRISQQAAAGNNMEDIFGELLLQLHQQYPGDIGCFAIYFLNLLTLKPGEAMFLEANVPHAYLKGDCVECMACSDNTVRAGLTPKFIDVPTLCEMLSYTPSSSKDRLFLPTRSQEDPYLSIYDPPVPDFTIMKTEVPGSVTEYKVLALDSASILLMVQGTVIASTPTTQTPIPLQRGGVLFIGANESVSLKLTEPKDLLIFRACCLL

[4] = molecular target: T2, Delta-type opioid receptor (Homo sapiens, UniProt P41143); experiment: DOR agonists, SAR follow-up, image-based (AID 2370); format: functional
[5] = molecular target: T3, Kappa-type opioid receptor (Homo sapiens, UniProt P41145); experiment: KOR antagonists by imaging, SAR follow-up, image-based (AID 2348); format: functional
[6] = molecular target: T2, Delta-type opioid receptor; experiment: DOR antagonists, SAR follow-up, image-based (AID 2357); format: functional
[7] = molecular target: T4, Mu-type opioid receptor (Homo sapiens, UniProt P35372); experiment: MOR antagonists, SAR follow-up, image-based (AID 2420); format: functional;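 note: compounds added before stimulation of receptor with agonist DAMGO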
[8] = molecular target: T4, Mu-type opioid receptor; experiment: MOR agonists by imaging, SAR follow-up, image-based (AID 2352); format: functional
[9] = molecular target: T3, Kappa-type opioid receptor; experiment: KOR agonist analogs, imaging readout, SAR follow-up, image-based (AID 2359); format: functional
[10] = molecular target: T3, Kappa-type opioid receptor; experiment: kappa opioid receptor blockers, cell-based, luminescence, beta-arrestin, SAR follow-up (AID 2285); format: functional
[11] = molecular target: T5, Polyadenylate-binding protein 1 (Homo sapiens, UniProt P11940); experiment: PABP1 MLLE–PAM2 binding inhibitor potency, dose response, biochemical, fluorescence polarization, FITC-PAM2 peptide (AID 602259); format: functional; details: read-out: IC50_Mean
[12] = molecular target: T6, G-protein coupled receptor 55 (Homo sapiens, UniProt Q9Y2T6); experiment: SAR analysis of selective Agonists of GPR55 using an Image-Based Assay. [Related pubchem assays (depositor defined):AID1961, AID1965]; format: functional
[13] = molecular target: T6, G-protein coupled receptor 55; experiment: GPR55 agonists via beta-arrestin recruitment, primary screen, imaging, U2OS cells, beta-arrestin-GFP redistribution (AID 1961); format: functional
[14] = molecular target: Cannabinoid receptor 1 (Homo sapiens, UniProt P21554); experiment: SAR analysis of antagonists of the Cannabinoid Receptor 1 using an Image-Based Assay. [Related pubchem assays (depositor defined):AID1961, AID1965]; format: functional
[15] = molecular target: T7, Cannabinoid receptor 2 (Homo sapiens, UniProt P34972); experiment: SAR analysis of agonists of the Cannabinoid Receptor 2 using an Image-Based Assay - Set 2. [Related pubchem assays (depositor defined):AID1961, AID1965]; format: functional
[16] = molecular target: T8, Tyrosine-protein phosphatase non-receptor type 7 (Homo sapiens, UniProt P35236); experiment: SAR analysis of chemical inhibitors of HePTP using a Fluorescent assay - Set 2. [Related pubchem assays (depositor defined):AID1059, AID1077, AID1661, AID2085, AID521]; format: functional
T8 sequence (P35236 whole entry): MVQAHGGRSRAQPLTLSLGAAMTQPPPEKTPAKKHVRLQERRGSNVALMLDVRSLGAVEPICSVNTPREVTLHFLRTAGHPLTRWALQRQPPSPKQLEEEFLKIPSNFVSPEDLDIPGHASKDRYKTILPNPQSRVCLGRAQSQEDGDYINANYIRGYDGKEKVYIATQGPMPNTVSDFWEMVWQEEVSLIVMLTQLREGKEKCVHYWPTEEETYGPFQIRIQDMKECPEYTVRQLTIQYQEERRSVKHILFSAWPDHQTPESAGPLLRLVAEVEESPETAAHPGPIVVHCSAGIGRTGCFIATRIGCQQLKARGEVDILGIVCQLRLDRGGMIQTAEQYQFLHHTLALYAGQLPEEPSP

[17] = molecular target: T5, Polyadenylate-binding protein 1; experiment: PABP1 MLLE–PAM2 interaction inhibitors, dose response, miRNA deadenylation inhibitor project, biochemical, fluorescence polarization, Cy5-PAM2 peptide, secondary (AID 602260); format: functional; details: read-out: IC50_Mean
[18] = molecular target: T7, Cannabinoid receptor 2; experiment: SAR analysis of antagonists of the Cannabinoid Receptor 2 using an Image-Based Assay - Set 2. [Related pubchem assays (depositor defined):AID1961, AID1965]; format: functional
[19] = molecular target: Dual specificity protein phosphatase 3 (Homo sapiens, UniProt P51452); experiment: SAR VHR1 Fluorescent Assay for In Vitro dose response studies Set 2. [Related pubchem assays (depositor defined):AID1654, AID1661, AID1878]; format: functional
[20] = HepG2 cell cytotoxicity, dose response, cytotoxicity control for non-replicating M. tuberculosis project (AID 489018); format: functional; details: Mycobacterium tuberculosis
[21] = Vero E6 cell cytotoxicity, dose response, cytotoxicity control for non-replicating M. tuberculosis project, secondary assay (AID 492998); format: functional, VeroE6; details: Vero C1008
[22] = Luminescence Cell-Based Dose Retest to Confirm Inhibitors of Cancer Stem Cells. [Related pubchem assays (depositor defined):AID2717, AID2721]; format: functional; details: Homo sapiens
[23] = THP-1 cell cytotoxicity, dose response, cytotoxicity control for non-replicating M. tuberculosis project (AID 489025); format: functional
[24] = molecular target: Heat shock protein HSP 90-alpha (Homo sapiens, UniProt P07900); format: functional, organism-based
[25] = cells; format: functional
[26] = Counterscreen for AddAB inhibitors: absorbance-based bacterial cell-based high throughput dose response assay for inhibitors of bacterial viability. [Related pubchem assays (depositor defined):AID435030, AID449728, AID449731, AID488942, AID488955, AID488956]; format: functional
[27] = molecular target: Exodeoxyribonuclease V (Escherichia coli (strain K12), UniProt P04993+P07648+P08394); experiment: E. coli RecBCD inhibitors, dose response, counter-screen for AddAB inhibitor project, absorbance, V66 E. coli, mutant T4 phage (AID 492957); format: functional, cell-based, Escherichia coli str. K-12 substr. MG1655
[28] = molecular target: T8, Tyrosine-protein phosphatase non-receptor type 7; experiment: HePTP (PTPN7) phosphatase inhibitor potency, SAR follow-up, biochemical, set 2 (AID 449736); format: functional
[29] = molecular target: T9, Rac GTPase-activating protein 1 (Homo sapiens, UniProt Q9H0H5); experiment: MgcRacGAP GTPase-activating activity inhibitors, confirmation, biochemical, ADP Hunter fluorescence, primary and confirmatory (AID 624330); format: functional
T9 sequence (Q9H0H5 whole entry): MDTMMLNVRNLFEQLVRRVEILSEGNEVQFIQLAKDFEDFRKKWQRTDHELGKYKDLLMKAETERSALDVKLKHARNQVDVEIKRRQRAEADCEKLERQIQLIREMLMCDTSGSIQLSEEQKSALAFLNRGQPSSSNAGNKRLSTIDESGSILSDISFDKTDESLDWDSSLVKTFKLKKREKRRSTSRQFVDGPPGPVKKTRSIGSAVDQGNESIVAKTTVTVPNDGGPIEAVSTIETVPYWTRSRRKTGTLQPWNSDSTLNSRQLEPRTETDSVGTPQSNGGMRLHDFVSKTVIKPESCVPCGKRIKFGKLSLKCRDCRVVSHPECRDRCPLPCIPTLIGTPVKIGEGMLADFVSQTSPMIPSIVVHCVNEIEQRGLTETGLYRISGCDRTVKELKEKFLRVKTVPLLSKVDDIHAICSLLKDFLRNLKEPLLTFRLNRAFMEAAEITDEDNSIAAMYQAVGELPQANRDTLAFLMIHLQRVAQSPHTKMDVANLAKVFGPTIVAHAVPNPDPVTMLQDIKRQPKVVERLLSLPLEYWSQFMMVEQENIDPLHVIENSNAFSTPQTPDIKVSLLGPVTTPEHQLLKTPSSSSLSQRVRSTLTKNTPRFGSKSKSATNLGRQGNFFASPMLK

[30] = molecular target: T10, DNA repair protein RAD52 homolog (Homo sapiens, UniProt P43351); format: functional, biochemical
T10 sequence (P43351 whole entry): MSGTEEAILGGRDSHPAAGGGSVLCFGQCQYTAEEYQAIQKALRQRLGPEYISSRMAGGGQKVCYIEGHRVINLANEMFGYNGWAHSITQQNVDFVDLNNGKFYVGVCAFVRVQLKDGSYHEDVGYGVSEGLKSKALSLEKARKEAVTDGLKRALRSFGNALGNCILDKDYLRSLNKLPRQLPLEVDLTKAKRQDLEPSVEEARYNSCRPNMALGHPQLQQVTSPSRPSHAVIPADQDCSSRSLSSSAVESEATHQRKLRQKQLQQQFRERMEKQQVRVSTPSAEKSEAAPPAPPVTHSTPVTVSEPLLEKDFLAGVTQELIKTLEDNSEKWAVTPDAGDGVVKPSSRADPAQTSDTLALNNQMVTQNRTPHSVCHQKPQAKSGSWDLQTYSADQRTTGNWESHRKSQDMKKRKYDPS

[31] = HeLa cell cytotoxicity, dose response, cytotoxicity control for MgcRacGAP inhibitor project (AID 624300); format: functional
[32] = CFTR ΔF508 corrector activity in bronchial cells, dose response, human bronchial epithelial cells, plate reader, cherry-pick, two tests (AID 743267); format: functional, cell-based
[33] = molecular target: T11, Hexokinase HKDC1 (Homo sapiens, UniProt Q2TB90); experiment: HKDC1 hexokinase activators, dose response, biochemical, W721R variant (AID 504730); format: functional
T11 sequence (Q2TB90 whole entry): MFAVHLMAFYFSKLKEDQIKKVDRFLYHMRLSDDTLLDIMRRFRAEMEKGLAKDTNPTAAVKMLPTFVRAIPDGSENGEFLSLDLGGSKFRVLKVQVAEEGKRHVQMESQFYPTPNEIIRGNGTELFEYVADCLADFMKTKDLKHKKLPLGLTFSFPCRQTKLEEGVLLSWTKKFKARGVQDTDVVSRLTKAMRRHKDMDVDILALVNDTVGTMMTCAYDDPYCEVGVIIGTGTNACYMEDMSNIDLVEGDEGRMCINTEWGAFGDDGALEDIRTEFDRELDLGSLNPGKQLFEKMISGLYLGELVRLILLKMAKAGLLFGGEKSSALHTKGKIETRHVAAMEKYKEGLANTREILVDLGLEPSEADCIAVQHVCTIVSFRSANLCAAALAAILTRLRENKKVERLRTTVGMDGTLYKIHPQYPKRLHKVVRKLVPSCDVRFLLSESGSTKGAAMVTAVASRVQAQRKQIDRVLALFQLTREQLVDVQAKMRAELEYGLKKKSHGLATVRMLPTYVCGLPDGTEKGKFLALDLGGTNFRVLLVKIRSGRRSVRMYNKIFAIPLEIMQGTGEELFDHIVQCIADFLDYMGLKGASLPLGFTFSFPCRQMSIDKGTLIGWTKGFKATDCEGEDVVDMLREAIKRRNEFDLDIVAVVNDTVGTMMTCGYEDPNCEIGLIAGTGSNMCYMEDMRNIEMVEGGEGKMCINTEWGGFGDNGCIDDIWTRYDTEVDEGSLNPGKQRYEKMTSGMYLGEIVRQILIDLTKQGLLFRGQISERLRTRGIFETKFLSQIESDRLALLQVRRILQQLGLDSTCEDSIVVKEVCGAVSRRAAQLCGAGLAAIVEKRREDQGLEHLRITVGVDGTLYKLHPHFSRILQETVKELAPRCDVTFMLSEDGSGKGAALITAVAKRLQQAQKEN

T3 sequence (P41145 whole entry): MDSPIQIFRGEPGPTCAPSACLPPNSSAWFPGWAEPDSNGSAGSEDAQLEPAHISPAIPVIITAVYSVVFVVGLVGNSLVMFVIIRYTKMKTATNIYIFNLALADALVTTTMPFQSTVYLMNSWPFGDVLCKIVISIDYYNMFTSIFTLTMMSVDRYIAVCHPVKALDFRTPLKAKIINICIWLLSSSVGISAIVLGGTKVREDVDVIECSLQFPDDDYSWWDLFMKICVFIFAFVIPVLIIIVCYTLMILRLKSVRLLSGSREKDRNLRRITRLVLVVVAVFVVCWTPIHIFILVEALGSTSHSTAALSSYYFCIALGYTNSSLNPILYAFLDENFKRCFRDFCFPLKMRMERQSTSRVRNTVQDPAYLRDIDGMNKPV
T6 sequence (Q9Y2T6 whole entry): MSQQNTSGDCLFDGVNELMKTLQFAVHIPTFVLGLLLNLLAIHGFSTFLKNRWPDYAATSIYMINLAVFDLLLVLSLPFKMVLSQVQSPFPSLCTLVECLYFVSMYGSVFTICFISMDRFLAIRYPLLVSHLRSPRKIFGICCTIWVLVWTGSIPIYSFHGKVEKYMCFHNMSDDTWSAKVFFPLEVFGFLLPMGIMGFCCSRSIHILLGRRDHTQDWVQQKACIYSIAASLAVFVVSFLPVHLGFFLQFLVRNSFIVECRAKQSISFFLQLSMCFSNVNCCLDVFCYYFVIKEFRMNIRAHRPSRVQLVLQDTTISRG
T5 sequence (P11940 whole entry): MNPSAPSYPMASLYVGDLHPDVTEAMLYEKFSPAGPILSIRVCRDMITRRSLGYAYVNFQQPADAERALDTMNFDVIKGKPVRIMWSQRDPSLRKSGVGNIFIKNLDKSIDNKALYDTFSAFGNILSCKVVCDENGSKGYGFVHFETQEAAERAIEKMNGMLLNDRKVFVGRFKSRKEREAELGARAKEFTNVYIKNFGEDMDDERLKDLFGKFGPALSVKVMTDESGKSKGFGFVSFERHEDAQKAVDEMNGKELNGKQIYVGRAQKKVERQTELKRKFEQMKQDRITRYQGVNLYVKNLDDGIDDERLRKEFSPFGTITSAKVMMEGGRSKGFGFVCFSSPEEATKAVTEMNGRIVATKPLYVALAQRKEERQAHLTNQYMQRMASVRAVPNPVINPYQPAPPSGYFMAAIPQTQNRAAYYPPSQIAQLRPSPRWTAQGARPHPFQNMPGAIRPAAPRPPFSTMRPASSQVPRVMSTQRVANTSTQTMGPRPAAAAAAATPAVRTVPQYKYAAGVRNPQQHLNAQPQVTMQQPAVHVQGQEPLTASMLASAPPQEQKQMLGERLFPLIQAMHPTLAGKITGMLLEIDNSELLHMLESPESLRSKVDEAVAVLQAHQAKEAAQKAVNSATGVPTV
T4 sequence (P35372 whole entry): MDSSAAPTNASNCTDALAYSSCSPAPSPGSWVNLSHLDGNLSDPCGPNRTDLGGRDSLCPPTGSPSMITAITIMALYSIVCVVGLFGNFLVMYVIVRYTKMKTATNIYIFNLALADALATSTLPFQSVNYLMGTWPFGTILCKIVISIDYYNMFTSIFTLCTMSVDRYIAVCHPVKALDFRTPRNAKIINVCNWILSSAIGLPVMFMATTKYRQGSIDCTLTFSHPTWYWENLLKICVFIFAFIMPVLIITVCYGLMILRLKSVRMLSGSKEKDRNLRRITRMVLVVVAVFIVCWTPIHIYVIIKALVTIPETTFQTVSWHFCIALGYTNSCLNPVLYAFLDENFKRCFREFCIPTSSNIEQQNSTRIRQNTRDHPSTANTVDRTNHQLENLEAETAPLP
T7 sequence (P34972 whole entry): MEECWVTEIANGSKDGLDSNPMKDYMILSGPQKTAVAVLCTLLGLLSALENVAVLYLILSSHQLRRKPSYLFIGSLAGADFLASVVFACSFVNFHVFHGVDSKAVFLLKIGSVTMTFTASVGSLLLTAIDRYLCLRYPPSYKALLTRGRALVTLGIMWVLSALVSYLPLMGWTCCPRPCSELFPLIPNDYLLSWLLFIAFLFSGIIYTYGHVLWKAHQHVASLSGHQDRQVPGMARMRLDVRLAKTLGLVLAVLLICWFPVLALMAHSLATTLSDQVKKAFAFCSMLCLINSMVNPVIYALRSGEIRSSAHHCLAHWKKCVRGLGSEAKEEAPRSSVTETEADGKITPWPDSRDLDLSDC
T2 sequence (P41143 whole entry): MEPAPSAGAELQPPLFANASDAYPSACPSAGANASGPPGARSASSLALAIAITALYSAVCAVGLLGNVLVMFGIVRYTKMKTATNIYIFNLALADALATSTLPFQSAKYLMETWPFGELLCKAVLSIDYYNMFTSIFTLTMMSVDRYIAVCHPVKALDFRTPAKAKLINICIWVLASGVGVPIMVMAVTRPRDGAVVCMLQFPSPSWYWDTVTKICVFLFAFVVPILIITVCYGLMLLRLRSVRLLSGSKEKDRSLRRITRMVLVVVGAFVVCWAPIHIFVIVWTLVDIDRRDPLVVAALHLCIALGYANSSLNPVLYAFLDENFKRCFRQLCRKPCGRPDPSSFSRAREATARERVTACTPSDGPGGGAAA
Dual specificity protein phosphatase 3, sequence (P51452 whole entry): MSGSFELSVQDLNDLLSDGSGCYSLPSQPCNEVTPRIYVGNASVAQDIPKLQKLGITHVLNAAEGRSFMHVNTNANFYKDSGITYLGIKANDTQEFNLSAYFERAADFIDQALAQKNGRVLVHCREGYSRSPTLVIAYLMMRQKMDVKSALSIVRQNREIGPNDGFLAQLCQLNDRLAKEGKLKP
Lysine-specific demethylase 4C, sequence (Q9H3R0 whole entry): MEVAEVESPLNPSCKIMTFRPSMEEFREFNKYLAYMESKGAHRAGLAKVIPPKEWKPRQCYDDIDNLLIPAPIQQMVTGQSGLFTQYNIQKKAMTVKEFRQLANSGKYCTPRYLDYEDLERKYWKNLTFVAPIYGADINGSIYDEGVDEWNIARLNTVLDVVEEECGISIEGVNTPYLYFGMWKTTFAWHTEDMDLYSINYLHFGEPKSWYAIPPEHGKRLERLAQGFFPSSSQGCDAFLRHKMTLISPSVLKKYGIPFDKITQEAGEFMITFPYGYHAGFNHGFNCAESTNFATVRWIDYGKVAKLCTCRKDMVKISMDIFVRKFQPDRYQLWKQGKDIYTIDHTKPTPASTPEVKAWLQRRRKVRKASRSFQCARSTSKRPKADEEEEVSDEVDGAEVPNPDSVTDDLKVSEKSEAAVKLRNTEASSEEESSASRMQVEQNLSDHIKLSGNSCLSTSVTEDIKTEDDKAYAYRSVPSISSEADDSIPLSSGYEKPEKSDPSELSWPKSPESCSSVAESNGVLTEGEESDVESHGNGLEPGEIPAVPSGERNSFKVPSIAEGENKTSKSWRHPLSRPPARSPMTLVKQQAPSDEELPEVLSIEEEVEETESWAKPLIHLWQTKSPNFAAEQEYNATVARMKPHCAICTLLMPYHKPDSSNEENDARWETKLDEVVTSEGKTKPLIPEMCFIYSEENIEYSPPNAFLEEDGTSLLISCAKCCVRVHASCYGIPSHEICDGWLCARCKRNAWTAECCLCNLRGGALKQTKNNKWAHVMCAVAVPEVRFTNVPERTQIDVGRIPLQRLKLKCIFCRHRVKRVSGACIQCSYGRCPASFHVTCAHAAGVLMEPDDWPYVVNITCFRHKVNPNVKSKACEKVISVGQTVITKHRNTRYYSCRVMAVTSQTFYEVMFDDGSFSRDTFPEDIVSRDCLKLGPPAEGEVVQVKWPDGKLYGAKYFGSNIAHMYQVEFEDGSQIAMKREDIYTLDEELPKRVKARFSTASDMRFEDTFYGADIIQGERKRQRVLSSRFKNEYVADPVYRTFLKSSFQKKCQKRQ
Lysine-specific demethylase 4A, sequence (O75164 whole entry): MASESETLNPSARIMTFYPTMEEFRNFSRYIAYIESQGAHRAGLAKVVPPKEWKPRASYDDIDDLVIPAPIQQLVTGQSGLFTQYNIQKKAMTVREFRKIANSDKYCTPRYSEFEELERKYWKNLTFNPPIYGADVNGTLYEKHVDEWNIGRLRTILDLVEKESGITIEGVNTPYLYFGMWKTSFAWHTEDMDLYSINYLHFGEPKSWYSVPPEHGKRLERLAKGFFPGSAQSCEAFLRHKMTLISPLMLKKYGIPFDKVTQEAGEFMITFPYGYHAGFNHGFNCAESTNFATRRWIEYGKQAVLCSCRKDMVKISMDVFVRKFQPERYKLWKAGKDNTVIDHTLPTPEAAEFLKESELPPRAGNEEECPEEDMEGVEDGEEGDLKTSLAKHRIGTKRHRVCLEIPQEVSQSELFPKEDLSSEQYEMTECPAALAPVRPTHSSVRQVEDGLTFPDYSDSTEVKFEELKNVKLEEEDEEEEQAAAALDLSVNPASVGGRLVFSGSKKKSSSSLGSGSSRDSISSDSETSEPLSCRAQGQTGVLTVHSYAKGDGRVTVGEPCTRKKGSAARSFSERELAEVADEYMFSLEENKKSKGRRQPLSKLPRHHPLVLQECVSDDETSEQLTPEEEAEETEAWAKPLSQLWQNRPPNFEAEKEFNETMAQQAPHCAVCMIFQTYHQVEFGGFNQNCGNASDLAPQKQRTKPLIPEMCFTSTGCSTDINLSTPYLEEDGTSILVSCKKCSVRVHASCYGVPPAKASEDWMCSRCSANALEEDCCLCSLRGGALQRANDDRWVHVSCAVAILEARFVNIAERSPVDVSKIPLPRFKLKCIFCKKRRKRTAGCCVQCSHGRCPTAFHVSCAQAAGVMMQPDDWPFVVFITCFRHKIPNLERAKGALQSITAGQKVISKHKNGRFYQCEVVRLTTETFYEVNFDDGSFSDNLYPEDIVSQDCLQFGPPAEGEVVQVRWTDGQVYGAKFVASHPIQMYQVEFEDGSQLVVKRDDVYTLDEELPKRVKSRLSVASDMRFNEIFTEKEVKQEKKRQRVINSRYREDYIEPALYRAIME

## Cc1ccc2[nH]c(=O)c(C=C3C(=O)NC(=O)NC3=O)cc2c1
[1]
  AC50: 26.9 µM (active)
[2]
  AC50: 46.5 µM (active)
[3]
  IC50: > 50 µM (not active)

## Cc1ccc(C)c(NC(S)=NC(NC(=O)OCc2ccccc2)C(Cl)(Cl)Cl)c1 (stereo not drawn)
[4]
  EC50: > 32 µM (inactive)
[5]
  IC50: 1.53 µM (active)
[6]
  IC50: > 32 µM (inactive)
[7]
  IC50: > 32 µM (inactive)
[8]
  EC50: > 32 µM (inactive)
[9]
  EC50: > 32 µM (inactive)
[10]
  IC50: 6.2 µM (active)

## CC(C)NS(=O)(=O)c1ccc(NC(=S)NC(=O)c2ccc(-c3ccccc3)cc2)cc1
[11]
  IC50: > 66 µM (inactive)
[12]
  EC50: 0.354 µM (active)
[13]
  EC50: 0.544 µM (active)
[14]
  IC50: > 32 µM (inactive)
[15]
  EC50: > 32 µM (inactive)
[16]
  IC50: > 100 µM (inactive)
[17]
  IC50: > 66 µM (inactive)
[18]
  IC50: > 32 µM (inactive)
[19]
  IC50: > 100 µM (inactive)

## O=C(Nc1nc(-c2cccs2)cs1)c1ccc([N+](=O)[O-])o1
[20]
  CC50: 9.45 µM (active)
[21]
  CC50: > 20 µM (active)
[22]
  AC50: 1.52 µM (active)
[23]
  CC50: 9.67 µM (active)
[24]
  AC50: 2.32 µM (active)
[25]
  IC50: 0.61 µM (active)
[26]
  IC50: > 118 µM (inactive)
[27]
  IC50: > 118 µM (inactive)

## COc1ccc(Cl)cc1-n1c(N)c(C(=O)N2CCOCC2)sc1=S
[28]
  IC50: > 100 µM (inactive)

## Cc1ccc2c(C)c3ccc4ccccc4c3c[n+]2c1.[O-][Cl+3]([O-])([O-])[O-]
[29]
  IC50: 48 µM (active)
[30]
  AC50: 1.34 µM (active)
[31]
  CC50: 78.8 µM (active)
[32]
  AC50: 1.06 µM (active)
[33]
  EC50: 14.2 µM (active)
